Measurements as given in US10111902B2, “Polymers for reversing heparin-based anticoagulation” (University of British Columbia, priority 2011, dated 2018).
“Also recorded” adds a separate entry of the source.

Experiments:
UFH = assay: Thromboelastography (TEG), neutralization of UFH in whole blood; format: cell-based; details: human whole blood, UFH 0.5 U/ml, re-calcified at 37° C
Procedure: This example examines thromboelastography in the presence of various heparin binders. Thromboelastography (TEG) provides an in vitro method for monitoring of the evolution of the viscoelastic properties and coagulation kinetics of blood as clotting proceeds. The principle components of the TEG are a cylindrical cup and a bob suspended in the cup from a weak torsion wire. The warmed cup oscillates over a 10 second period through an angle of 4° 45′. Blood is added and a torque is transmitted to the bob as the gel forms. The rate of clot formation, the strength of the clot, and the rate of clot lysis are reflected in the shape traced out by the maxima in the bob oscillation as a function of time (the trace of the TEG). […]
To carry out TEG experiments, citrate anti-coagulated whole blood with heparin or heparin derivatives added are incubated with buffered HBSPCM polymers (sodium citrate or saline) for 1 minute before recalcification at 37° C. Clot formation kinetics are monitored in a TEG machine (350 μl whole blood+35 μl polymer or control solution) at 37° C.
The coagulation time (FIG. 7A) and maximum clot strength, or maximum amplitude (MA) (FIG. 7B) are shown. Citrated whole blood was added to UFH or Tinzaparin (0.5 U/ml) and re-calcified at 37° C. in a TEG cup and monitored using a TEG machine. […]

[1] = tested on: unfractionated heparin (UFH); assay: APTT assay, neutralization of UFH in citrate plasma; format: biochemical, human
Procedure: In one example, a heparin binding synthetic polyvalent cationic macromolecule JNK-1 can neutralize UFH in human blood under in vitro conditions (FIGS. 4A and 4B). Citrate plasma was anti-coagulated with 1.0 U/ml UFH (UFH control) and was titrated with different concentrations of JNK-1 polymers (0.009 to 8.69 nanomoles/ml) and protamine (0.2 to 222.2 nanomoles/ml).
(§1) Citrate plasma was anticoagulated with 2.0 U/ml UFH, Enoxaparin and Tinzaparin and was treated with different concentrations of the HBSPCM polymers and protamine (0.001 to 0.25 mg/ml). The APTT was measured for each sample.
(§2) Citrate plasma was anticoagulated with UFH (2.0 IU/mL), Enoxaparin (2.0 IU/mL) and Tinzaparin (1.14 IU/mL) and was titrated with different concentrations of the HBSPCM polymers and protamine (0.001 to 0.25 mg/ml). The APTT was measured for each sample.
(§3) Ability of HBSPCM polymers JNK-9, JNK-10 and JNK-11 was studied for the range of concentration from 0.01 to 0.25 mg/mL prepared in 0.15 M saline. Citrated blood was spun at 3000 RPM for 10 min to obtain platelet poor plasma (PPP). The PPP was then heparinized by adding 45 μL of heparin (UFH, LMWH etc.) to 2200 μL of PPP final concentration of 2.0 IU/mL for UFH and Tinzaparin and 1.14 IU/mL for Enoxaparin. Normal control was prepared by adding 25 μL of 0.15 M saline to 250 μL of PPP. 25 μL of each antidote solution (polymer or protamine) was added to 225 μL of heparinized PPP. 250 μL of APTT reagent (actin FSL) was then added and samples were incubated for 3 min at 37° C. 250 μL of normal control was combined with 250 μL of APTT reagent and also incubated for 3 min. 50 μL of 0.025M CaCl2 was added to 100 μL aliquots of normal control and sample (in triplicate). A heparinized control containing 225 μL of PPP and 25 μL of saline was also prepared and run similar to normal control.

Enoxaparin = assay: Anti Xa neutralization of Enoxaparin in platelet poor plasma; format: biochemical, human; details: One IU LMWH per ml in platelet poor plasma
Procedure: (§4) Both JNK-1 and JNK-2 result in greater neutralization of unfractionated heparin at two doses (50 and 100 μg/ml), Tinzaparin (LMWH) and Enoxaparin (LMWH).

Tinzaparin = assay: Anti Xa neutralization of Tinzaparin in platelet poor plasma; format: biochemical, human; details: One IU LMWH per ml in platelet poor plasma
Procedure: as §4

LMWH Tinzaparin = assay: APTT assay, neutralization of LMWH Tinzaparin in citrate plasma; format: biochemical, human
Procedure: Citrate plasma was anti-coagulated with 2.0 U/ml LMWH (LMWH control) and was titrated with different concentrations of JNK-1 polymers (0.009 to 8.69 nanomoles/ml) (FIG. 4A) and protamine (0.2 to 222.2 nanomoles/ml) (FIG. 4B).
as §1, §2
as §3, with “250 μL of normal control was combined with 250 μL of APTT reagent and also incubated for 3 min. 50 μL of 0.025M CaCl2 was added to 100 μL aliquots of normal control and sample (in triplicate). A heparinized control containing 225 μL of PPP and 25 μL of saline was also prepared and run similar to normal control.” left out

blood coagulation = assay: Blood coagulation: PT and APTT in platelet poor plasma; format: biochemical, human; details: FIG. 15, compared to saline
Procedure: The present example examines blood coagulation in the presence of a heparin binding polymer. JNK-1 polymers were tested for blood compatibility using the activated partial thromboplastin time (APTT) and the prothrombin time (PT) in fresh human plasma. PT can be used to evaluate the extrinsic and common coagulation pathway and the results are expressed in seconds required for a fibrin clot to form after tissue thromboplastin (innovin) has been added to the blood sample. APTT is used to evaluate the intrinsic and common coagulation pathway. The results are expressed in seconds required for a fibrin clot to form in the plasma sample after a partial thromboplastin reagent (actin) and calcium chloride have been added to the sample. Blood was mixed with a measured amount of citrate and the plasma was obtained by centrifugation, using methods known in the art.
A final JNK-1 concentration of 10 mg/ml is used at in a 9:1 dilution of plasma at 37° C. Control experiments were done adding identical volumes of saline solution. JNK-1 polymer solutions were incubated with platelet poor plasma for 5 minutes at 37° C. before adding PT and APTT reagents.
Blood coagulation is measured using APTT.

protamine
Blood compatibility at 1 mg/ml (blood): poor [3] | UFH neutralization (TEG: coagulation time, clot strength) (UFH): not effective at neutralizing UFH or LMWH Tinzaparin and Enoxaparin in terms of the time to clot formation | UFH neutralization (APTT) ([1]; citrate plasma, UFH 2.0 U/ml, polymers and protamine 0.001 to 0.25 mg/ml): neutralizes UFH and LMWH only in the narrow concentration range | anticoagulant effect at higher concentration (APTT) ([1]; heparinized citrate plasma, 0.001 to 0.25 mg/ml): possesses anticoagulant activity | anticoagulant effect at high concentration (APTT) ([1]; heparinized human citrate plasma, high doses of antidote): had an anticoagulant effect | UFH neutralization (APTT) ([1]; human citrate plasma anti-coagulated with UFH (1.0 U/ml), titrated with JNK-1 0.009 to 8.69 or protamine 0.2 to 222.2 nanomoles/ml): complete neutralization occurred at a higher dosage of protamine; also recorded: acted with less efficiency for UFH within a smaller dose window | Anti Xa Neutralization (%) of Enoxaparin at 100 μg/ml (Enoxaparin): 73 ± 4% | Anti Xa Neutralization (%) of Tinzaparin at 100 μg/ml (Tinzaparin): 77 ± 1% | LMWH Tinzaparin neutralization (APTT) (LMWH Tinzaparin; citrate plasma, Tinzaparin 2.0 U/ml or 1.14 IU/mL, 0.001 to 0.25 mg/ml): neutralizes UFH and LMWH only in the narrow concentration range | LMWH Tinzaparin neutralization (APTT) (LMWH Tinzaparin; human citrate plasma anti-coagulated with LMWH Tinzaparin (2.0 U/ml), titrated with JNK-1 0.009 to 8.69 or protamine 0.2 to 222.2 nanomoles/ml): not at all; also recorded: incapable of neutralizing LMWH | blood coagulation (APTT biocompatibility) (blood coagulation): different blood coagulation profile
